Reference: US8466186B2, “Compounds” (Boehringer Ingelheim International GmbH, priority 2010, dated 2013)

Each compound was assayed against T1, recombinant human mPGES-1 (Homo sapiens, UniProt O14684) (assay: Assay A: mPGES-1 enzyme assay (HTRF detection of PGE2)). Settings: biological assay A; microsomes from E. coli expressing recombinant human mPGES-1; read-out: mPGES-1 inhibitory effect IC50.
T1 construct: made in house; host or cells: Rosetta E. coli (membrane/microsome fraction)
T1 sequence (O14684 1-152): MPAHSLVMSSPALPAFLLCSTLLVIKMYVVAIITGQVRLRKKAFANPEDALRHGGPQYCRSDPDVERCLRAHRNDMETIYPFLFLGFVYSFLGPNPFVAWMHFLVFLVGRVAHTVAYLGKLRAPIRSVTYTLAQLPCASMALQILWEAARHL
Type: biochemical
Text: The aim of this assay is to determine the affinity of a test compound for the mPGES-1 enzyme.
• 1. Riendeau, D., R. Aspiotis, D. Ethier, Y. Gareau, E. Grimm, J. Guay, S. Guiral, H. Juteau, J. Mancini, N. Methot, J. Rubin, and R. Friesen, Inhibitors of the inducible microsomal prostaglandin E2 synthase (mPGES-1) derived from MK-886. Bioorg Med Chem Lett, 2005. 15(14): p. 3352-3355. • 2. Cote, B., L. Boulet, C. Brideau, D. Claveau, D. Ethier, R. Frenette, M. Gagnon, A. Giroux, J. Guay, S. Guiral, J. Mancini, E. Martins, F. Masse, N. Methot, D. Riendeau, J. Rubin, D. Xu, H. Yu, Y. Ducharme, and R. Friesen, Substituted phenanthrene imidazoles as potent, selective, and orally active mPGES-1 inhibitors. Bioorg Med Chem Lett, 2007. 17(24): p. 6816-6820. Assay A: mPGES-1 Enzyme Assay List of Reagents Used: • Glutathione (Sigma, G-4251) • Freeze culture in Rosetta E coli expression strain. • LB growth media with Ampillicillin (Amp) final concentration in culture 50 μg/mL • Chloroamphenicol stock 34 mg/mL (chloro) final concentration in culture 34 μg/mL • Sterile growth flasks for 500 mL-1 liter cultures • 0.1 M KP, buffer pH 7.4 • 9.25% HCl • PGH2 (0.25 mM) • Fe (II) Cl2 tetrahydrate, 99% (Sigma, 220229) • 384-well plate with compounds • 96-well plate, polypropylene (Thermo fast 96 skirted VWR) • 384-well plate polypropylene PCR plate (Greiner 785201) • Greiner 384-well plate pp (In vitro cat. no. 781280) • Adhesive sealing film for 96-well plates (Sigma-Aldrich) • Aluminium foil (PCR foil, 310-0030-127-471 from Labora) • PBS (GIBCO 14040) • Prostaglandin E2 Assay (Cisbio, cat. no. 62P2APEC) • Biomek FX robot (Beckman Coulter) • Biomek NX robot (Beckman Coulter) • Multidrop; micro or combi (ThermoLabsystems) • Plate reader: Safire2 (Tecan)
Microsomes from Rosetta E. coli bacteria expressing recombinant human mPGES-1 can be derived as described below:
Inoculate 5 mL LB with Amp and Chloro with bacteria from freeze culture. Incubate overnight at 37° C. with 200 rpm. Thereafter, inoculate 500-800 mL LB containing Amp and Chloro with the 5 mL on culture and grow to OD640 of 0.6-0.8. Chill the culture to +4° C. before induction. Induce the culture with IPTG at a final concentration of 400 μM. Express the protein at room temp 18-23° C. with 200 rpm shaking overnight.
The following steps can be performed on the following day: • 1. Spin down the cells in 250 mL centrifuge flasks for 15 min at 7000 rpm • 2. Dissolve the pellet from 250 mL culture in 12.5 mL homogenization buffer • 3. Disintegrate the cells by sonication, 4×10 seconds at 35% amplitude • 4. Add 2.5 mL MgCl2 (100 mM) and DNase 12.5 μL (0.8 mg/mL) and incubate on ice for 30 min • 5. Spin down the bacteria debris and save the supernatant, 7000 rpm for 15 min • 6. Isolate the protein containing membranes in the supernatant by ultracentrifugation 45000×g for 1 hour. • 7. Discard the supernatant and dissolve the pellet in 20 mM KPi buffer and aliquot the enzyme and store aliquots at −80° C.
Before each experiment is performed an aliquot of the enzyme is thawed and it can then be dissolved in 0.1 M KP, pH 7.4 buffer containing 2.5 mM GSH. 50 μL of this enzyme solution is subsequently dispensed in a 384-well plate at room temperature. 0.5 μL of the inhibitor dissolved in DMSO is thereafter added to each well and incubated for 25 minutes at room temperature. Subsequently, 2 μL of PGH2 dissolved in an appropriate solvent is added to each well and after one minute at room temperature, the acidified stop solution containing FeCl2 is added. 4 μL of the total volume is transferred to a separate plate and diluted 750-fold in two separate steps before quantification of PGE2.
In order to quantitate the amount of PGE2 that has been formed, a homogenous time resolved fluorescent (HTRF) detection of PGE2 can be performed by the use of a commercially available kit from CisBio essentially according to the manufacturer's protocol. […]

SMILES | IC50 [nM]
O=C(NCc1ccc(Cl)c(Nc2nc3cc(Cl)c(N4CCC(C(F)(F)F)CC4)cc3[nH]2)c1)C1(C(F)(F)F)CC1 [Example 75] | 8.7
Cn1c(Nc2cc(CNC(=O)C3(C(F)(F)F)CC3)ccc2Cl)nc2cc(Cl)c(N3CCC(c4ccccc4)CC3)cc21 [Example 76, N-{4-Chloro-3-[5-chloro-1-methyl-6-(4-phenyl-piperidin-1-yl)-1H-benzimidazol-2-ylamino]-benzyl}-1-trifluoromethyl-cyclopropanamide] | 3.1
COC1CCN(c2cc3c(cc2Cl)nc(Nc2cc(CNC(=O)C4(C(F)(F)F)CC4)ccc2Cl)n3C)CC1 [Example 77] | 10
Cn1c(Nc2cc(CNC(=O)C3(C(F)(F)F)CC3)ccc2Cl)nc2cc(Cl)c(N3CCC(C)(C)CC3)cc21 [Example 78] | 1.7
Cn1c(Nc2cc(CNC(=O)C3(C(F)(F)F)CC3)ccc2Cl)nc2cc(Cl)c(N3CCC(F)(F)CC3)cc21 [Example 79] | 2.4
CN(C)CCn1c(Nc2cc(CNC(=O)C3(C(F)(F)F)CC3)ccc2Cl)nc2cc(Cl)c(N3CCC(C(F)(F)F)CC3)cc21 [Example 80] | 54
COCCn1c(Nc2cc(CNC(=O)C3(C(F)(F)F)CC3)ccc2Cl)nc2cc(Cl)c(N3CCC(C(F)(F)F)CC3)cc21 [Example 81] | 6.7
Cn1c(Nc2cc(CNC(=O)C3(C(F)(F)F)CC3)ccc2Cl)nc2cc(C#N)c(N3CCC(C(F)(F)F)CC3)cc21 [Example 82, N-{4-Chloro-3-[5-cyano-1-methyl-6-(4-trifluoromethyl-piperidin-1-yl)-1H-benzimidazol-2-ylamino]-benzyl}-1-trifluoromethyl-cyclopropanamide] | 1.7
Cn1c(Nc2cc(CNC(=O)C3(C(F)(F)F)CC3)ccc2Cl)nc2cc(Cl)c(N3CCN(c4ccc(C(F)(F)F)cc4)CC3)cc21 [Example 83, N-{4-Chloro-3-[5-chloro-1-methyl-6-(4-(4-trifluoromethylphenyl)-piperazin-1-yl)-1H-benzimidazol-2-ylamino]-benzyl}-1-trifluoromethyl-cyclopropanamide] | 1.3
Cn1c(Nc2cc(CNC(=O)C3(C(F)(F)F)CC3)ccc2Cl)nc2cc(F)c(N3CCC(C(F)(F)F)CC3)c(F)c21 [Example 84, N-{4-Chloro-3-[5,7-difluoro-1-methyl-6-(4-trifluoromethyl-piperidin-1-yl)-1H-benzimidazol-2-ylamino]-benzyl}-1-trifluoromethyl-cyclopropanamide] | 7.3
Cn1c(Nc2cc(CNC(=O)C3(C(F)(F)F)CC3)ccc2Cl)nc2cc(F)c(N3CCC(C)(C)CC3)c(F)c21 [Example 85] | 20
Cn1c(Nc2cc(CNC(=O)C3(C(F)(F)F)CC3)ccc2Cl)nc2cc(F)c(N3CCC(C(F)(F)F)CC3)cc21 [Example 86, N-{4-Chloro-3-[5-fluoro-1-methyl-6-(4-trifluoromethyl-piperidin-1-yl)-1H-benzimidazol-2-ylamino]-benzyl}-1-trifluoromethyl-cyclopropanamide] | 7.1
Cn1c(Nc2cc(CNC(=O)C3(C(F)(F)F)CC3)ccc2Cl)nc2cc(F)c(N3CCC(C)(C)CC3)cc21 [Example 87] | 14
O=C(NCc1ccc(Cl)c(Nc2nc3cc(Cl)c(N4CCC(C(F)(F)F)CC4)cc3n2CC2CC2)c1)C1(C(F)(F)F)CC1 [Example 88] | 5.3
O=C(NCc1ccc(Cl)c(Nc2nc3cc(Cl)c(N4CCC(C(F)(F)F)CC4)cc3n2CC(F)(F)F)c1)C1(C(F)(F)F)CC1 [Example 89] | 6.1
Cn1c(Nc2cc(CNC(=O)C3(C(F)(F)F)CC3)ccc2Cl)nc2cc(Cl)c(N3CCN(c4ccccc4)CC3)cc21 [Example 90] | 2.2
Cn1c(Nc2cc(CNC(=O)C3(C(F)(F)F)CC3)ccc2Cl)nc2cc(Cl)c(N3CCC(c4ccc(F)cc4)CC3)cc21 [Example 91] | 3.6
N#Cc1c(N2CCCC(C(F)(F)F)C2)ccc2nc(Nc3cc(CNC(=O)C4(C(F)(F)F)CC4)ccc3Cl)[nH]c12 (stereo not drawn) [Example 93, N-{4-Chloro-3-[4-cyano-5-(3-trifluoromethyl-piperidin-1-yl)-1H-benzimidazol-2-ylamino]-benzyl}-1-trifluoromethyl-cyclopropanamide] | 17
Cn1c(Nc2cc(CNC(=O)C(C)(F)F)ccc2Cl)nc2cc(Cl)c(N3CCC(C(F)(F)F)CC3)cc21 [Example 94, N-{4-Chloro-3-[5-chloro-1-methyl-6-(4-trifluoromethyl-piperidin-1-yl)-1H-benzimidazol-2-ylamino]-benzyl}-2,2-difluoro-propionamide] | 3.5
Cn1c(Nc2cc(CNC(=O)C(C)(F)F)ccc2Cl)nc2cc(Cl)c(N3CCC(c4ccccc4)CC3)cc21 [Example 95] | 2.1
Cn1c(Nc2cc(CNC(=O)C(C)(F)F)ccc2Cl)nc2cc(Cl)c(N3CCN(c4ccc(C(F)(F)F)cc4)CC3)cc21 [Example 96] | 4.1
Cn1c(Nc2cc(CNS(=O)(=O)C(C)(C)C)ccc2Cl)nc2cc(Cl)c(N3CCC(C(F)(F)F)CC3)cc21 [Example 99, N-(4-Chloro-3-(5-chloro-1-methyl-6-(4-trifluoromethyl-piperidin-1-yl)-1H-benzo[d]imidazol-2-ylamino)benzyl)-2-methylpropane-2-sulfonamide] | 4
Cn1c(Nc2cc(CNS(=O)(=O)C(C)(C)C)ccc2Cl)nc2cc(Cl)c(N3CCN(c4ccc(C(F)(F)F)cc4)CC3)cc21 [Example 100] | 7.7
Cn1c(Nc2cc(CNC(=O)C3(C(F)(F)F)CC3)ccc2C(F)(F)F)nc2cc(Cl)c(N3CCC(C(F)(F)F)CC3)cc21 [Example 101, N-{4-Trifluoromethyl-3-[5-chloro-1-methyl-6-(4-trifluoromethyl-piperidin-1-yl)-1H-benzimidazol-2-ylamino]-benzyl}-1-trifluoromethyl-cyclopropanamide] | 2.8
Cn1c(Nc2cc(CNC(=O)C3CC3)ccc2C(F)(F)F)nc2cc(Cl)c(N3CCC(C(F)(F)F)CC3)cc21 [Example 102] | 2.4
Cn1c(Nc2cc(CNC(=O)c3c(F)cccc3Cl)ccc2C(F)(F)F)nc2cc(Cl)c(N3CCC(C(F)(F)F)CC3)cc21 [Example 103] | 2
Cn1c(Nc2cc(CNC(=O)C(C)(C)C)ccc2C(F)(F)F)nc2cc(Cl)c(N3CCC(C(F)(F)F)CC3)cc21 [Example 104] | 2.4
CC(C(=O)NCc1ccc(C(F)(F)F)c(Nc2nc3cc(Cl)c(N4CCC(C(F)(F)F)CC4)cc3n2C)c1)C(F)(F)F (stereo not drawn) [Example 105, N-{4-Trifluoromethyl-3-[5-chloro-1-methyl-6-(4-trifluoromethyl-piperidin-1-yl)-1H-benzimidazol-2-ylamino]-benzyl}-3,3,3-trifluoro-2-methyl-propanamide] | 3.9
Cn1c(Nc2cc(CNC(=O)C(C)(F)F)ccc2C(F)(F)F)nc2cc(Cl)c(N3CCC(C(F)(F)F)CC3)cc21 [Example 106] | 5.7
Cn1c(Nc2cc(CNC(=O)C3(O)CC3)ccc2C(F)(F)F)nc2cc(Cl)c(N3CCC(C(F)(F)F)CC3)cc21 [Example 107] | 13
